Experimental data as given in paper PMC10526274, “Epithelial-Immune Cell Crosstalk Determines the Activation of Immune Cells In Vitro by the Human Cathelicidin LL-37 at Low Physiological Concentrations” (Biomolecules, 2023).
“And” between values parts separate entries of the source, which are not always exact repeats. Equal values may be shown once.

System: Caco-2/NKT cell co-culture
Assay: Multiplex xMAP cytokine levels, Caco-2/NKT co-culture stimulated with LL-37
Format: cell-based, human
Conditions: NKT/Caco-2 co-culture, 1 µM LL-37, 24 h, n=2
Procedure: Caco-2 cell line (ATCC HTB-37) was cultured in a humidified CO2-incubator (5% CO2, 37 °C) in the complete DMEM/F12 (1:1) medium (Gibco, Waltham, MA, USA) containing 10% fetal bovine serum (FBS, Gibco) and 1X antibiotic–antimycotic solution (Gibco). To stabilize the cell phenotype, Caco-2 cells have been subcultivated three times before seeding on the filter supports. Then, Caco-2 cells were seeded at a density of 2 × 10^5 cells/cm^2 onto 24-well Millicell cell culture inserts (PC, 0.4-μm pore size, 0.6 cm^2 surface area, cat. #PIHP01250) (Millipore, Burlington, MA, USA), precoated with 0.2% bovine gelatin (Sigma-Aldrich, Saint Louis, MO, USA). After seeding, Caco-2 cells were grown in the same complete medium with re-feeding every 2–3 days until polarization of the monolayer occurred. The functional polarity of the monolayers was developed when transepithelial electrical resistance (TEER) between the apical and basolateral surfaces of the monolayers reached […] as measured by the electrical resistance system Millicell-ERS Voltohmmeter (Millipore, Burlington, MA, USA). Grown cell monolayers were used in transport and cytokine production experiments between the 21st and 29th days.
NKT cells (CD3^+CD56^+) were isolated from PBMCs using the FACSVantageDiVa cell sorter (Becton Dickinson, Franklin Lakes, NJ, USA), equipped with 405, 488, and 643 nm lasers (Supporting Materials, Figure S1). PBMCs were re-suspended in the FACS buffer (PBS containing 0.5% BSA and 2 mM EDTA) and labeled with monoclonal mouse anti-human CD3-APC (clone UCHT1, Beckman Coulter, Pasadena, CA, USA) and mouse anti-human CD56-PE/Cy7 (clone N901, Beckman Coulter) antibodies to isolate NKT cells (CD3^+CD56^+).
Sorted NKT cells were expanded by stimulation with Dynabead Human T-Expander CD3/CD28 magnetic beads (Gibco) in RPMI-1640 medium containing 10% FBS, 1X antibiotic–antimycotic solution, 100 U/mL IL-2 (Gibco), and 50 ng/mL IL-7 (Sci-Store). CD3/CD28 magnetic beads were subsequently removed with a magnet. Expanded NKT cells were washed out of the cytokines and cryopreserved.
Primary blood monocytes, moDCs, and NKT cells were seeded in 600 µL of complete RPMI-1640 with 10% Human AB serum (Capricorn Scientific, Ebsdorfergrund, Germany) and supplemented with 1X antibiotic–antimycotic solution into the wells of 24-well plates at a density of 3–7 × 10^5 cells/well 24 h before the experiment. Then, 24 h later, the medium in each well was replaced by the same medium with 1 µM of LL-37 for the sample wells or fresh medium alone for the control wells, and the permeable inserts with the Caco-2 monolayer with TEER > 400 Ω × cm^2, containing 400 μL of the complete medium in their apical chamber, were immediately placed into the appropriate wells. Also, inserts with the Caco-2 monolayer were placed in cell-free wells of 24-well plates in the same complete RPMI-1640 medium with or without 1 µM of LL-37 as controls. Cells were kept in a CO2-incubator (5% CO2, 37 °C) for another 24 h. Then, culture medium from each well was collected, centrifuged, and frozen at −70 °C.
To quantitatively evaluate a broad spectrum of analytes secreted by human cell cultures at the protein level, multiplex xMAP technology was used. […]

With “LL-37: the only human cathelicidin, host defense antimicrobial peptide of 37 a.a. residues, produced by solid-phase peptide synthesis” the IL-18 level (control 0.74) was 0.52 pg/mL, the MDC level (control 1.37) was 0.58 pg/mL and the IL-2 level (control 1.49) was 1.16 pg/mL. The IL-6 level (control 1.7) was 1.09 pg/mL, the FLT-3L level (control 2.11) was 1.96 pg/mL and the IL-8 level (control 3.74) was 5.93 pg/mL. The IFNa2 level (control 4) was <3.88↓ pg/ml, the IL-4 level (control 4.85) was 6.05 pg/mL and the IL-9 level (control 5.8) was 5.8 pg/mL. The IFNg level (control 6.08) was 5.17 pg/mL, the MCP-3 level (control 7.84) was 7.84 pg/mL and the IL-1a level (control 9.17) was 10.05 pg/mL. For the same substance, the TNFb level (control 12.53) was 16.33 pg/mL, the TNFa level (control 15.69) was 16.61 pg/mL and the sCD40L level (control 23.6) was 23.6 pg/mL. For the same substance, the IL-22 level (control 27.2, p = 0.093) was 34 pg/mL and 34.37 pg/mL, the PDGF-AB/BB level (control 29.35) was 41.49 pg/mL and the GROa level (control 30.74) was 50.06 pg/mL. The FGF-2 level (control 35.81) was 41.88 pg/mL, the IL-27 level (control 35.81) was 51.37 pg/mL and the MIP-1b level (control 36.43) was 42.84 pg/mL. For the same substance, the MIG level (control 53.25) was 70 pg/mL, the M-GSF level (control 55.64) was 47.83 pg/mL and the GM-CSF level (control 69.7) was 65.72 pg/mL. For the same substance, the IP-10 level (control 141.7) was 206.59 pg/mL, the IL-13 level (control 179.71) was 178.25 pg/mL and the PDGF-AA level (control 200.08) was 182.58 pg/mL. It also gave an IL-5 level (control 246.49) of 258.81 pg/mL, an MIP-1a level (control 399.48) of 471.29 pg/mL and an RANTES level (control 718.58) of 908.6 pg/mL. The VEGFa level (control 951.17) was 1907 pg/mL, the IL-7 level (control <0.30) was <0.30↓ pg/ml and the IL-3 level (control <0.55) was <0.55↓ pg/ml. For the same substance, the TGF-a level (control <0.68) was <0.68↓ pg/ml, the IL-17A level (control <0.70) was <0.70↓ pg/ml and the IL-1b level (control <0.74) was <0.74↓ pg/ml. For the same substance, the IL-1RA level (control <0.93) was <0.93↓ pg/ml, the IL-10 level (control <1.35) was <1.35↓ pg/ml and the MCP-1 level (control <1.35) was 2.13 pg/mL. For the same substance, the IL-15 level (control <1.54) was <1.54↓ pg/ml, the EGF level (control <1.60) was 2.26 pg/mL and the “IL-12 (p70) level” value (control <1.71) was <1.71↓ pg/ml. The G-CSF level (control <2.32) was <2.32↓ pg/ml, the Eotaxin level (control <2.91) was <2.91↓ pg/ml and the “IL-12 (p40) level” value (control <3.33) was <3.33↓ pg/ml. For the same substance, the IL-17F level (control <12.19) was <12.19↓ pg/ml, the Fractalkine level (control <18.09) was 19.78 pg/mL and the IL-17E/IL-25 level (control <19.43) was <19.43↓ pg/ml.
